The text below walks through data of patent publication US20110172193A1, “PRO-DRUGS OF (E)-7-(3-(2-AMINO-1-FLUOROETHYLIDENE)PIPERIDIN-1-YL)-1-CYCLOPROPYL-6-FLUORO-8-METHOXY-4-OXO-1,4-DIHYDROQUINOLINE-3-CARBOXYLIC ACID” (priority 2010, published 2011).

Each structure is given as a SMILES string. Read-outs that look alike come from different tables or passages of the source.

A short description of data set [1]: Clarity of test compound solutions at […] (aqueous solubility). The settings on record: for solubility at 24 h: pH 4, aqueous buffer; for Aqueous Solubility pH~7 (visual clarity): […] active-form equivalents, pH 7 (50 mM phosphate), after 24 hours. On the procedure:
A 50-mg/mL solution of a compound of formula (I) or a compound of formula (II) in H2O was titrated with 0.1 M NaOH until pH reached 5.7-6.1. Any solid that precipitated was filtered. The remaining solutions or phase-separated oil/H2O mixtures were freeze-dried to produce zwitterions as fluffy solids.
The aqueous solubility of Compounds #14, #15 and #16 were determined by a modified procedure. In these cases, the samples were targeted at a pH of 4 and 7 and were measured exclusively using 100 mM phosphate buffers. For both pH's, measured samples were initially prepared at ˜3 mg/ml and ˜10 mg/ml concentrations and for samples that dissolved rapidly, additional compound was added to the solution until saturated solutions were obtained.

Data set [2] concerns Staphylococcus aureus (OC8525), a methicillin-resistant strain (MRSA). Kind of data set: In vivo efficacy in a mouse systemic infection model. The settings on record: for ED50: Staphylococcus aureus, 72 h, Swiss Webster mice infected i.p. with MRSA, 3 day survival, normalized to parent content; for % Survival: i.v., single dose level, mice. On the procedure:
Female Swiss Webster mice weighing between 20-25 g were infected intraperitoneally with approximately 5×10^5 colony forming units (CFU) Staphylococcus aureus (OC8525), a methicillin-resistant strain (MRSA), in 7% mucin. One hour later, the animals were given the test compound intravenously or orally in a dose volume of 0.2 mL. Each animal test group consisted of eight animals. The test compounds were prepared immediately before dosing in 5% dextrose in water (D5W) and diluted further in D5W for i.v. and p.o. administration. The mice were observed over a three day period and ED50 values were calculated from the resulting % survival curves (see Table 13, below). The measured ED50 values were normalized to the content of (E)-7-(3-(2-amino-1-fluoroethylidene)piperidin-1-yl)-1-cyclopropyl-6-fluoro-8-methoxy-4-oxo-1,4-dihydroquinoline-3-carboxylic acid. For some compounds, in vivo efficacy was determined by testing a group of eight mice at a single dose level only. In these cases, the data presented in Table 13, below are reported as percent survival at the designated dose.

Setting [3] is: 50 mM citrate buffer, thermodynamic from solid.
[4] abbreviates: oral dose 1 h later, read-out: ED50 p.o.
Setting [5] is: iv, i.v. dose 1 h later, read-out: ED50 i.v.

As for `COc1c(N2CCC/C(=C(\F)CNC(=O)[C@H](C)NC(=O)[C@H](C)N)C2)c(F)cc2c(=O)c(C(=O)O)cn(C3CC3)c12.Cl` [Compound 2, 7-(3-{2-[(2S)-2-((2S)-2-Amino-propionylamino)-propionylamino]-1-fluoro-ethylidene}-piperidin-1-yl)-1-cyclopropyl-6-fluoro-8-methoxy-4-oxo-1,4-dihydro-quinoline-3-carboxylic acid hydrochloride], the solubility (as a rule, the concentration that dissolves in the medium under given conditions) at 24 h in data set [1] (setting [3]) was less than 3300 µg/mL. Further, in data set [1], the “Aqueous Solubility pH~7 (visual clarity)” value is “No”. The ED50 – broadly, the dose at which the effect has come halfway, by size or by number of responders – in data set [2] (setting [4]) is greater than 14.9 mg/kg; in data set [2] (setting [5]), 2.6 mg/kg.
With `COc1c(N2CCC/C(=C(\F)CNC(=O)[C@@H](N)Cc3ccccc3)C2)c(F)cc2c(=O)c(C(=O)O)cn(C3CC3)c12.Cl` [Compound 3, 7-{3-[2-((2S)-2-Amino-3-phenyl-propionylamino)-1-fluoro-ethylidene]-piperidin-1-yl}-1-cyclopropyl-6-fluoro-8-methoxy-4-oxo-1,4-dihydro-quinoline-3-carboxylic acid hydrochloride], in data set [1] (setting [3]), the solubility at 24 h is less than 3300 µg/mL. In addition, the “Aqueous Solubility pH~7 (visual clarity)” value in data set [1] was “No”. The ED50 in data set [2] (setting [4]) is greater than 14.8 mg/kg; in data set [2] (setting [5]), 1.4 mg/kg.
For `COc1c(N2CCC/C(=C(\F)CNC(=O)[C@@H](N)CC(=O)O)C2)c(F)cc2c(=O)c(C(=O)O)cn(C3CC3)c12.Cl` [Compound 5, 7-{3-[2-((2S)-2-Amino-3-carboxy-propionylamino)-1-fluoro-ethylidene]-piperidin-1-yl}-1-cyclopropyl-6-fluoro-8-methoxy-4-oxo-1,4-dihydro-quinoline-3-carboxylic acid hydrochloride], in data set [1] (setting [3]), the solubility at 24 h was less than 3300 µg/mL. Further, the “Aqueous Solubility pH~7 (visual clarity)” value in data set [1] was “No”. The results for the ED50 in data set [2] (setting [4]) and in data set [2] (setting [5]) were greater than 15.7 mg/kg and greater than 3.9 mg/kg, respectively.
In data set [1] (setting [3]), `CN[C@@H](C)C(=O)NC/C(F)=C1/CCCN(c2c(F)cc3c(=O)c(C(=O)O)cn(C4CC4)c3c2OC)C1.Cl` [Compound 7, 1-Cyclopropyl-6-fluoro-7-{3-[1-fluoro-2-((2S)-2-methylamino-propionylamino)-ethylidene]-piperidin-1-yl}-8-methoxy-4-oxo-1,4-dihydro-quinoline-3-carboxylic acid hydrochloride] gave a solubility at 24 h greater than 3300 µg/mL. The “Aqueous Solubility pH~7 (visual clarity)” value in data set [1] is recorded as “Yes”. Further, the “% Survival” value in data set [2] (at 2.1 mg/kg/day) came out at 0% at 2.1 mg/kg/day.
`COc1c(N2CCC/C(=C(\F)CNC(=O)OCc3oc(=O)oc3C)C2)c(F)cc2c(=O)c(C(=O)O)cn(C3CC3)c12` [Compound 8, 1-Cyclopropyl-6-fluoro-7-{3-[1-fluoro-2-(5-methyl-2-oxo-[1,3]dioxol-4-ylmethoxycarbonylamino)-ethylidene]-piperidin-1-yl}-8-methoxy-4-oxo-1,4-dihydro-quinoline-3-carboxylic acid] yielded a solubility at 24 h in data set [1] (setting [3]) of less than 3300 µg/mL. Moreover, the “Aqueous Solubility pH~7 (visual clarity)” value in data set [1] is on record as “No”.
Consider `COc1c(N2CCC/C(=C(\F)CNC(=O)[C@@H](N)CCCCN)C2)c(F)cc2c(=O)c(C(=O)O)cn(C3CC3)c12.Cl.Cl` [Compound 9, 1-Cyclopropyl-7-{3-[2-((2S)-2,6-diamino-hexanoylamino)-1-fluoro-ethylidene]-piperidin-1-yl}-6-fluoro-8-methoxy-4-oxo-1,4-dihydro-quinoline-3-carboxylic acid dihydrochloride], for which the solubility at 24 h in data set [1] (setting [3]) is greater than 3300 µg/mL. Also, the “Aqueous Solubility pH~7 (visual clarity)” value in data set [1] is “Yes”. The “% Survival” value in data set [2] (at 1.9 mg/kg/day) amounted to 25% at 1.9 mg/kg/day.
Take `COc1c(N2CCC/C(=C(\F)CNC(=O)[C@H](CC(C)C)NC(=O)[C@H](C)N)C2)c(F)cc2c(=O)c(C(=O)O)cn(C3CC3)c12.Cl` [Compound 10, 7-(3-{2-[(2S)-2-((2S)-2-Amino-propionylamino)-4-methyl-pentanoylamino]-1-fluoro-ethylidene}-piperidin-1-yl)-1-cyclopropyl-6-fluoro-8-methoxy-4-oxo-1,4-dihydro-quinoline-3-carboxylic acid hydrochloride]: the solubility at 24 h in data set [1] (setting [3]) was less than 3300 µg/mL. The “Aqueous Solubility pH~7 (visual clarity)” value in data set [1] is on record as “No”. Besides, the “% Survival” value in data set [2] (at 2.4 mg/kg/day) is listed as 25% at 2.4 mg/kg/day.
On to `CCOC(=O)c1cn(C2CC2)c2c(OC)c(N3CCC/C(=C(\F)CN)C3)c(F)cc2c1=O.Cl` [Compound 11, 7-[3-(2-Amino-1-fluoro-ethylidene)-piperidin-1-yl]-1-cyclopropyl-6-fluoro-8-methoxy-4-oxo-1,4-dihydro-quinoline-3-carboxylic acid ethyl ester hydrochloride], for which the solubility at 24 h in data set [1] (setting [3]) was less than 3300 µg/mL. The “Aqueous Solubility pH~7 (visual clarity)” value in data set [1] is reported as “No”. The ED50 worked out at 6.7 mg/kg in data set [2] (setting [4]) and 1.2 mg/kg in data set [2] (setting [5]).
`CCOP(=O)(NCC(F)=C1CCCN(c2c(F)cc3c(=O)c(C(=O)[O-])cn(C4CC4)c3c2OC)C1)OCC.[Na+]` [Compound 13, 1-Cyclopropyl-7-{3-[2-(diethoxy-phosphorylamino)-1-fluoro-ethylidene]-piperidin-1-yl}-6-fluoro-8-methoxy-4-oxo-1,4-dihydro-quinoline-3-carboxylic acid sodium salt]: the solubility at 24 h in data set [1] (thermodynamic from solid) is less than 3300 µg/mL. Moreover, the solubility in data set [1] (pH 7.8, aqueous buffer, thermodynamic from solid) was 1800 µg/mL. Also, the “% Survival” value in data set [2] (at 3.8 mg/kg/day) is given as 12.5% at 3.8 mg/kg/day.
